Measurements: PubChem BioAssay AID179 (DTP/NCI, 2004)
Several values for one entry are separate records, joined by “and”; a condition that tells them apart may be missing. Identical values can stand only once. Activity calls are given as the source filed them.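 Rule for the calls: active = compounds giving half or more protection of infected cells from virus-caused growth loss, again on retest; inactive = the rest.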 Where a SMILES comes first, the peptide text is derived from it.

Test system: CEM cells HIV-1 protection, formazan growth assay
Assay: NCI AIDS Antiviral Assay
Details: for IC50: measured here: growth of uninfected CEM cells
How it was run: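 Protection of CEM cells against HIV-1 was scored from cell growth (soluble formazan) across five concentrations, with parallel uninfected cells. Lack of protection may reflect toxicity.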

SMILES | EC50 [µM] | IC50 | outcome
CCOC(=O)c1ccc(CSc2ccc(Cl)cc2)c([N+](=O)[O-])c1 | > 102 | > 102 µM | –
CC1(C)SCc2nc3ncccc3n21 | > 1230 | 617 µM | –
O=C(O)COc1ccc2c3c1C(=O)CCC3CO2 (stereo unspecified) | – | – | inactive
Cc1cc(N(CCC#N)CCC#N)ccc1/C(N=Nc1ccccc1)=N\NC(=O)c1cc(Cl)ccc1O | > 200 | 28.8 µM | –
O=C(/C=C\c1cccc2ccccc12)c1ccc(Br)cc1 | > 3.09 | > 3.09 µM | –
Nc1ccccc1-c1ccn[nH]1 | > 200 | > 200 µM | –
Cn1c(=O)oc2cc(C(O)CN3CCN(Cc4ccccn4)CC3)c(Cl)cc21 (stereo unspecified) | > 200 | 195 µM | –
O=S(=O)(c1ccccn1)c1nc2ccccc2s1 | – | – | inactive
c1cc[c]([Sn]([S]c2ccccn2)([c]2ccccc2)[c]2ccccc2)cc1 | > 2 | 0.339 µM | –
Nc1ncnc2c1ncn2C1C=CC(=O)CC1 (stereo unspecified) | > 31.6 | 5.62 µM | –
CCOc1ccc(Nc2nc(N)nc(N)c2N=O)cc1 | > 151 | 15.8 µM | –
Cc1cc2c(nn1)CCc1c-2no[n+]1[O-] | > 200 | 174 µM | –
COc1ccccc1C(=O)[O][Sn]([c]1ccccc1)([c]1ccccc1)[c]1ccccc1 | > 2 | 0.219 µM | –
COC(=O)C12CN(C)CC(C(=O)OC)(C1=O)C(c1ccccn1)N(C)C2c1ccccn1 (stereo unspecified) | > 51.3 | 36.3 µM | –
CCS/C(SC)=C(/c1ccccc1)[P+](c1ccccc1)(c1ccccc1)c1ccccc1 | > 20 | 0.355 µM | –
C=C(Cn1cnc2c(N)ncnc21)C(=O)OCC | – | – | inactive
Clc1ccc2c(c1)-c1c3c(nn1-c1ccccc1)-c1ccccc1SC3O2 (stereo unspecified) | > 13.5 | > 13.5 µM | –
C[N+](C)(C)C(CSSCC(C(=O)[O-])[N+](C)(C)C)C(=O)[O-] (stereo unspecified) | > 200 | > 200 µM | –
CSCC1(O)CCCCC1 | > 200 | > 200 µM | –
COc1cc(CC(C(=O)OC(C)(C)C)C(=O)OC(C)(C)C)c(NC(C)=O)c(OC)c1OC | > 200 | > 200 µM | –
O=C1CC(=O)N(C=C2C(=O)NC(=O)NC2=O)C(=S)N1 | > 200 | > 200 µM | –

SMILES | EC50 [µM] | IC50 | outcome
O=C(O)CNS(=O)(=O)c1ccc(NC(=O)c2ccc(F)cc2)cc1 | – | – | inactive
CN1CCN(CC(=O)N2CCCn3c2nc2ccccc2c3=O)CC1 | > 200 | > 200 µM | –
CCC(C)c1c(N)o[nH]c1=O (stereo unspecified) | > 200 | > 200 µM | –
CC(C)C1CNC2N1C(=O)C2(C)OCc1ccccc1 (stereo unspecified) | > 251 | 155 µM | –
Cc1ccc2c(c1)[nH]c(=S)n2/C=C(/c1ccc(Cl)cc1)S(=O)(=O)Cc1ccc(Cl)cc1 | > 200 | > 200 µM | –
CCOC(=O)C(NC(=O)CC)(Nc1cc(C)on1)C(F)(F)F (stereo unspecified) | > 200 | > 200 µM | –
CCN(CC)CCNC(=O)c1ccc(C)c(OCc2ccccc2)c1[N+](=O)[O-] | > 200 | 33.9 µM | –
CC(CCc1nc2ccccc2o1)C1CCC2C3CC[C@@H]4C[C@H](O)CC[C@]4(C)C3CC[C@]12C (stereo partly specified) | > 50.1 | 17.4 µM | –
CC(=O)O/N=C1\C=Cc2c(no[n+]2[O-])C1=O | > 200 | 18.2 µM | –
N#Cc1c2nc3ccccc3nc2n2ccccc12 | > 40.7 | > 40.7 µM | –
O=C1NN2CCN=C2c2ncccc21 | > 933 | > 933 µM | –
COc1cccc2ccc(C(=O)c3ccccc3)nc12 | > 97.7 | > 97.7 µM | –
COc1c(OC2OC(CO)C(O)C(O)C2O)cc2c(c1OC)-c1ccc(OC)c(=O)cc1[C@@H](NC(C)=O)CC2 (stereo partly specified) | – | – | inactive
COC(=O)c1ccccc1NC(=O)C(=O)NNC(=O)c1ccncc1 | > 275 | > 275 µM | –
N#CC1=C(N)OC(c2ccc([N+](=O)[O-])cc2)C1(C#N)C#N (stereo unspecified) | > 200 | 10 µM | –
N#C/C(=C\c1ccc2c(c1)OCO2)c1ccccc1 | > 200 | 41.7 µM and > 28.8 µM | –
OC1c2ccccc2CC12Cc1ccccc1C2 (stereo unspecified) | > 200 | 145 µM | –
CN1C(=O)[C@](O)(Cc2cccc(O)c2)N(C)C(=O)[C@@H]1Cc1c[nH]c2cccc([N+](=O)[O-])c12 | – | – | inactive
CNC(=O)OCCOC(=O)c1ccc(OC(=O)NC)cc1 | > 200 | 70.8 µM | –
Cc1cc(Cl)ccc1NC(=O)/C(CC(=O)CC(c1ccccc1)c1c(O)c2ccccc2oc1=O)=N\O (stereo unspecified) | > 132 | 95.5 µM | –
CCCn1c(SCCSc2c3ccccc3c(-c3nc(F)nc(F)n3)n2CCC)c2ccccc2c1-c1nc(F)nc(F)n1 | > 4.07 | 3.98 µM | –

SMILES | EC50 [µM] | IC50 | outcome
CC(=O)N1C(NN(C)C)CCN1c1ccccc1 (stereo unspecified) | > 200 | 32.4 µM | –
CC(=O)Oc1cc(C)c(Cl)c2c(OC(C)=O)cc(C(C)=O)c(O)c12 | > 200 | 49 µM | –
Cc1ccc(NC2=N/C(=C/c3ccccc3)C(Cl)=N2)cc1 | > 100 | > 100 µM | –
COC(C)(C)C/C=C/C(C)=C/C=C/C(C)=C\C=C\C(C)=C\C=C\C=C(C)\C=C\C=C(C)\C=C\C=C(C)\C=C\CC(C)(C)OC | – | – | inactive
Cc1c(N=Nc2ccc(N(C)C)cc2)cc[n+]([O-])c1C | > 200 | > 200 µM | –
CC(=O)NC(CS)C(=O)NC(CO)C(=O)NC(CO)C(=O)NC(Cc1c[nH]c2ccccc12)C(=O)N1CCCC1C(=O)NC(CO)C(=O)NC(Cc1c[nH]c2ccccc12)C(=O)NC(Cc1c[nH]cn1)C(=O)NC(CO)C(=O)NC(Cc1c[nH]c2ccccc12)C(=O)NCC(=O)NCC(=O)NC(CC(=O)O)C(=O)NC(CCC(N)=O)C(=O)NC(CCCCN)C(=O)NC(Cc1ccccc1)C(=O)NC(CCCNC(=N)N)C(=O)NC(CCCCN)C(N)=O (stereo unspecified) (Ac-CSSWPSWHSWGGDQKFRK-NH2; configuration not given here) | > 20 | > 20 µM | –
c1ccc(C2=Nc3nc4ccccc4n3C(c3ccccc3)C2)cc1 (stereo unspecified) | > 151 | > 151 µM | –
COCN1COCN(COC)C1=O | > 646 | > 646 µM | –
Cc1cc([N+](=O)[O-])c(S(=O)(=O)c2ccccc2)c([N+](=O)[O-])c1 | > 22.4 | 3.63 µM | –
C#CCN(Cc1ccc2nc(-c3ccccc3)c(Cl)nc2c1)c1ccc(F)cc1 | > 200 | 27.5 µM | –
CC(C)C(Sc1nc(-c2ccccc2)c(-c2ccccc2)[nH]1)C(=O)NNC(=S)Nc1ccccc1 (stereo unspecified) | > 51.3 | 24 µM | –
COc1ccc(N2C(=O)CSC2c2c[nH]c3ccccc23)cc1 (stereo unspecified) | > 22.4 | > 22.4 µM | –
Nc1ncnc2c1nnn2C1CCC(CP(=O)(O)O)C1 (stereo unspecified) | > 200 | > 200 µM | –
CCc1c(-c2ccc(OC)cc2)oc(OC)c(C)c1=O | > 200 | 40.7 µM | –
CC(C)(C)OC(=O)NC(Cc1ccc(O)cc1)/C(O)=C(\C#N)c1c(F)c(F)c(F)c(F)c1F (stereo unspecified) | > 200 | 123 µM | –
Nc1ccc(-c2ncc3cc(-c4cccc(-c5cc6cnc(-c7ccc(N)cc7)nc6c6ccccc56)c4)c4ccccc4c3n2)cc1 | > 200 | > 200 µM | –
O=P1(NC2CCCC2)OCC2(CO1)COP(=O)(NC1CCCC1)OC2 (stereo unspecified) | > 200 | > 200 µM | –
O=C(Cc1nc2ccccc2c(=O)n1-c1ccccc1Cl)c1ccncc1 | > 5.37 | > 5.37 µM | –
O=C(c1ccco1)N(C(=O)N1CCCCC1)c1ccccc1 | > 200 | > 200 µM | –
C=C1c2nc3ccccc3n2C=C(c2ccc(C)cc2)N1c1ccc(OC)cc1 | > 200 | 11.5 µM | –
Cc1ccc(S(=O)(=O)c2scc(-c3ccccc3)c2C)cc1 | > 200 | 107 µM | –

SMILES | EC50 [µM] | IC50 | outcome
C=C(Cc1ccc2c(c1)OCO2)C(=C)Cc1ccc(O)cc1O | > 200 | 55 µM | –
CCOC(=O)c1ccc(N/N=[N+](/[O-])CC2OC(n3ccc(=O)[nH]c3=O)C(O[Si](C)(C)C(C)(C)C)C2O[Si](C)(C)C(C)(C)C)cc1 (stereo unspecified) | > 200 | 21.4 µM | –
NC(=S)N/N=C(/CC(=O)c1ccc([N+](=O)[O-])cc1)C(=O)Nc1ncc([N+](=O)[O-])s1 | > 83.2 | 81.3 µM | –
C#CCn1c(I)cc2c(c1=O)COC(=O)[C@]2(O)CC | > 200 | > 200 µM | –
CC1(OCc2ccccc2)C(=O)N2C1N(C(=O)OCc1ccccc1)CC2(C)C (stereo unspecified) | > 251 | 53.7 µM | –
CC(C)C1CN(C(=O)OCc2ccccc2)C2N1C(=O)C2(C)OCc1ccccc1 (stereo unspecified) | > 251 | 97.7 µM | –
Cn1c(=O)c2c(nc(NCC[N+](C)(C)C)n2C)n(C)c1=O | – | – | inactive
O=C1CCCC1C(O)(C(F)(F)Cl)C(F)(F)Cl (stereo unspecified) | > 200 | > 200 µM | –
O=C1NC(=O)C23CCCCc4cccc(c42)C(=O)C13 (stereo unspecified) | > 372 | > 372 µM | –
O=C(C(=O)c1cc(-c2ccccc2)nc2ccc3ccccc3c12)c1ccccc1 | > 200 | 174 µM | –
C[PH+](C)CC[PH+](CC[PH+](c1ccccc1)c1ccccc1)c1ccccc1.[C-]#[O+].[C-]#[O+].[C-]#[O+].[Mo] (stereo unspecified) | – | – | inactive
COc1cc2ccc3c(c2oc1=O)[C@@H](OC(=O)C12CCC(C)(C(=O)O1)C2(C)C)[C@@H](OC(=O)C12CCC(C)(C(=O)O1)C2(C)C)C(C)(C)O3 (stereo partly specified) | 0.851 | 19.1 µM | –
CC(C)=CCNc1ncnc2c1ncn2CCC(=O)OC(C)(C)C | > 200 | 117 µM | –
CN(C)[C@@H]1C(=O)C(C(=O)NCNc2nc3n[nH]nc3c(=O)[nH]2)=C(O)[C@@]2(O)C(=O)C3=C(O)c4c(O)cccc4[C@@](C)(O)[C@H]3C[C@@H]12 | > 0.891 | 0.562 µM | –
CCCCOc1cccc(/C=N/N=C(/N)NO)c1 | – | – | inactive
O=C(OC1CN2CCC1CC2)N(c1ccccc1)c1ccccc1 (stereo unspecified) | > 200 | > 200 µM | –
COc1cc2oc(-c3ccccc3)cc(=O)c2c(O)c1C | > 33.1 | > 33.1 µM | –
CSC1=C(SC)SC(=C2SC3=C(SC(=C4SCCS4)S3)S2)S1 | > 100 | > 100 µM | –
COc1ccc(-n2c(C)nc3ccc(NC4OCC(OC(C)=O)C(OC(C)=O)C4OC(C)=O)cc3c2=O)cc1 (stereo unspecified) | > 200 | 123 µM | –
CCCCOP(=O)(OCCCC)C(NS(=O)(=O)c1ccccc1)(C(=O)OCC)C(F)(F)F (stereo unspecified) | > 200 | 19.1 µM | –
